Experimental data published in PMC6199744, “Development of Chemical Proteomics for the Folateome and Analysis of the Kinetoplastid Folateome” (ACS Infectious Diseases, 2018).
Where two headings read alike, the source gives them in different places.

Columns and labels:
Assay type in all cases: binding
[1] = biological target: T1, HeLa cell extract proteins (Homo sapiens, UniProt P02786)
T1 construct: endogenous in cells; host or cells: HeLa cell extract

[2] = biological target: T2, HeLa cell extract proteins (Homo sapiens, UniProt P52789)
T2 construct: endogenous in cells; host or cells: HeLa cell extract
T2 sequence (P52789 1-917): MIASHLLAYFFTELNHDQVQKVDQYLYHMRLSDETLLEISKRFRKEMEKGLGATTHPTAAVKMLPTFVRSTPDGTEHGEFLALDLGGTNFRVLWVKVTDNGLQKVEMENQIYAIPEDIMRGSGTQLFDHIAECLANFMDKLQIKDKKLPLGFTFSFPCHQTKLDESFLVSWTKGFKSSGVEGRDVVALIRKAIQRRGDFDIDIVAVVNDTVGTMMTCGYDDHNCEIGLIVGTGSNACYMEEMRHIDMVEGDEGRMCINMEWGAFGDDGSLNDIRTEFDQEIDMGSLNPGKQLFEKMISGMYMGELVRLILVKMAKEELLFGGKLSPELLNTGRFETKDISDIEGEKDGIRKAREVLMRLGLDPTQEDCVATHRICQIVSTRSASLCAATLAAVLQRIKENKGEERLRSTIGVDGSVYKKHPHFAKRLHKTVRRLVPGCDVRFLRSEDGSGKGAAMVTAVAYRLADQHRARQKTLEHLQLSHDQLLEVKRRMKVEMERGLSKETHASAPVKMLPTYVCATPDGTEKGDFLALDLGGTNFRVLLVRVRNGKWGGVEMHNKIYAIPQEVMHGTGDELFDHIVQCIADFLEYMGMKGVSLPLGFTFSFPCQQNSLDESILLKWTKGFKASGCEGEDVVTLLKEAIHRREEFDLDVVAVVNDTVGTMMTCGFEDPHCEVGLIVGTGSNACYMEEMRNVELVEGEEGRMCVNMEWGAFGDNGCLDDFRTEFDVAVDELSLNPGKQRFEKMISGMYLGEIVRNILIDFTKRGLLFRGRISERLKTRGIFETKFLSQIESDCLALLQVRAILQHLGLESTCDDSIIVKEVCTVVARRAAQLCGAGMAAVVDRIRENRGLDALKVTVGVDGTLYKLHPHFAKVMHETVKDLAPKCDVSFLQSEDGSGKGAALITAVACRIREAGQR

[3] = biological target: T3, HeLa cell extract proteins (Homo sapiens, UniProt Q9Y3F4)
T3 construct: endogenous in cells; host or cells: HeLa cell extract
T3 sequence (Q9Y3F4 1-350): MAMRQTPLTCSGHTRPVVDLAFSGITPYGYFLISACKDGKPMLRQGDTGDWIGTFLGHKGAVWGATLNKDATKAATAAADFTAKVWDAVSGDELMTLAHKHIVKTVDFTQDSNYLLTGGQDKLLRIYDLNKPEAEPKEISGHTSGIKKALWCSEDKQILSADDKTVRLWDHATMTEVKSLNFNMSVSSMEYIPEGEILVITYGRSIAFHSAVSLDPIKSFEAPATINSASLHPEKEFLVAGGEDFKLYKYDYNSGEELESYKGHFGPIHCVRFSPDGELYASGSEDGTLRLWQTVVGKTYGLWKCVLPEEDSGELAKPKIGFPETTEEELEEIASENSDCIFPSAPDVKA

[4] = biological target: T4, HeLa cell extract proteins (Homo sapiens, UniProt P04075)
T4 construct: endogenous in cells; host or cells: HeLa cell extract
T4 sequence (P04075 1-364): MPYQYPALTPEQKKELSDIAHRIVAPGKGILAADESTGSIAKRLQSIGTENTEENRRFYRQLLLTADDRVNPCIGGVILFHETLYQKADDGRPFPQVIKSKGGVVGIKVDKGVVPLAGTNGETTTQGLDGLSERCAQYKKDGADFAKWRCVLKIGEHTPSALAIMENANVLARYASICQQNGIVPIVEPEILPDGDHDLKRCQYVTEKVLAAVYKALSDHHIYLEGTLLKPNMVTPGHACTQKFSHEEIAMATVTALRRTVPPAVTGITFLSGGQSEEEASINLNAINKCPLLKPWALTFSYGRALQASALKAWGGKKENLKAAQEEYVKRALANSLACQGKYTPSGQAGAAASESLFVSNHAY

[5] = biological target: T5, HeLa cell extract proteins (Homo sapiens, UniProt P13639)
T5 construct: endogenous in cells; host or cells: HeLa cell extract

[6] = biological target: T6, HeLa cell extract proteins (Homo sapiens, UniProt P16278)
T6 construct: endogenous in cells; host or cells: HeLa cell extract
T6 sequence (P16278 29-677): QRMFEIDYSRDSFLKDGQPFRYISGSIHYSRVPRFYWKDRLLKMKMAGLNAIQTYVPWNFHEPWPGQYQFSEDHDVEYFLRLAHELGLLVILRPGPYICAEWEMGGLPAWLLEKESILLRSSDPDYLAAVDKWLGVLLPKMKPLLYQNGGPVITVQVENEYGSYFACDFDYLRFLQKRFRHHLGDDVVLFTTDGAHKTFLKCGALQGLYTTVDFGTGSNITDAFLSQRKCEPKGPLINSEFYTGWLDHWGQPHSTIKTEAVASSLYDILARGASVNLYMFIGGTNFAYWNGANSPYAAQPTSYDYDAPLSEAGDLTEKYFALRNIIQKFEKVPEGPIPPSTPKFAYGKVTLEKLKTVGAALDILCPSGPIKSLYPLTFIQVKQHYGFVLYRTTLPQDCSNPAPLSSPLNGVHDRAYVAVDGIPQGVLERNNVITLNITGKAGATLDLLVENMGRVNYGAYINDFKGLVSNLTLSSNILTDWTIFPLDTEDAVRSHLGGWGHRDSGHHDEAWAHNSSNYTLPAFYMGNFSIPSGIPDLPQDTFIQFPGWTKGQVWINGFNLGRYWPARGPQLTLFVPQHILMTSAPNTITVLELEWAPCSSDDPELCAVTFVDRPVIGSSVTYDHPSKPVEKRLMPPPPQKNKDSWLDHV

[7] = HeLa, protein ALDOA (45 KDA PROTEIN.)
[8] = HeLa, protein EEF2 (ELONGATION FACTOR 2.)

T1 sequence (P02786 whole entry): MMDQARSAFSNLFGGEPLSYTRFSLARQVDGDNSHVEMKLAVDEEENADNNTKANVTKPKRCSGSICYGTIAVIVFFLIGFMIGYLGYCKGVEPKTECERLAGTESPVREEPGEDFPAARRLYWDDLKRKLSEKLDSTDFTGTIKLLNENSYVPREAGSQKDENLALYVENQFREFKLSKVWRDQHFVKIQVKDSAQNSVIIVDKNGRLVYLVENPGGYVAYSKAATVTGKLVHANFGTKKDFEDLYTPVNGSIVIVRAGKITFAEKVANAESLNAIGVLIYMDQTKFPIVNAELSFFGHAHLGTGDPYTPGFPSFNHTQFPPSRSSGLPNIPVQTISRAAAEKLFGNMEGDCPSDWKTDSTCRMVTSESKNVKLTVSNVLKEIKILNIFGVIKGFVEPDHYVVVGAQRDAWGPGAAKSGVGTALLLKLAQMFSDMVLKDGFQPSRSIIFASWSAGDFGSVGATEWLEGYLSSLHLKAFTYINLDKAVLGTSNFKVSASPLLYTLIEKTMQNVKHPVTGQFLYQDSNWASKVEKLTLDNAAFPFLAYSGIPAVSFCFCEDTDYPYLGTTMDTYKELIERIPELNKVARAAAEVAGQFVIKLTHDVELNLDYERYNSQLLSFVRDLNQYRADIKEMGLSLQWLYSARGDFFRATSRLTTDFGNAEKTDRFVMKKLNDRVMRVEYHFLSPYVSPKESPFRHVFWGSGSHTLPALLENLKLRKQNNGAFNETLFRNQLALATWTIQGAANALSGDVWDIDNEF

Compound	fold changes relative to vehicle control ([1]; protein TFRC, HeLa)	fold changes relative to vehicle control ([2]; protein HK2, HeLa)	fold changes relative to vehicle control ([3]; protein STRAP, HeLa)	fold changes relative to vehicle control [4, 7] [fold]	fold changes relative to vehicle control ([6]; captured protein GLB1, HeLa)	fold changes relative to vehicle control ([1]; HeLa, protein TFRC)	fold changes relative to vehicle control ([2]; HeLa, protein HK2)	fold changes relative to vehicle control ([4]; protein ALDOA, HeLa)	fold changes relative to vehicle control ([5]; HeLa, protein EEF2)	fold changes relative to vehicle control ([6]; HeLa, captured protein GLB1)	further results
Nc1nc2cccc(-c3ccccc3)c2n1Cc1ccc(Cl)c(Cl)c1 [compound 3]	0.99	0.9	1.11	0.85	0.99	–	–	–	–	–	fold changes relative to vehicle control ([5]; HeLa, protein EEF2 ([…] 2.)): 0.97 fold
CCCCCCOc1ccc(Cc2cnc(N)nc2N)cc1 [compound 1]	1.26	1.11	1.07	1.38	0.96	–	–	–	–	–	fold changes relative to vehicle control [5, 8]: 1.33 fold
NCCCNc1ccc(C(=O)NC(CCC(=O)O)C(=O)O)cc1 (stereo not drawn) [compound 7]	–	–	0.86	–	–	0.87	1.03	1.02	1.04	1.07	–
CCCCCCOc1cccc(Cc2cnc(N)nc2N)c1 [compound 2]	1.96	1.43	1.28	2.49	0.9	–	–	–	–	–	fold changes relative to vehicle control [5, 8]: 2.22 fold
NCCOCCOCC(=O)Nc1nc2ncc(CNc3ccc(C(=O)NC(CCC(=O)O)C(=O)O)cc3)nc2c(=O)[nH]1 (stereo not drawn) [compound 6]	–	–	1.08	–	–	1.09	1.21	1.34	1.35	0.99	–
Nc1nc2[nH]cc(CCc3ccc(C(=O)N[C@@H](CCC(=O)O)C(=O)O)cc3)c2c(=O)[nH]1 [PTX, pemetrexed]	–	–	–	–	–	–	–	–	–	–	fold changes relative to vehicle control [1]: 1.01; fold changes relative to vehicle control [2]: 1.02; fold changes relative to vehicle control [3]: 1; fold changes relative to vehicle control [4]: 1.21; fold changes relative to vehicle control [5]: 1.2; fold changes relative to vehicle control [6]: 0.99
Nc1nc2c(c(=O)[nH]1)N(C=O)C(CNc1ccc(C(=O)N[C@@H](CCC(=O)O)C(=O)O)cc1)CN2 (stereo partly drawn) [LEU, leucovorin]	–	–	0.85	–	–	0.94	1	0.98	1.06	1.01	–
